Data set [1] deals with HCV luciferase-bearing wild-type replicon in cured GS4.1 cells. Kind of data set: Luciferase replicon transient transfection assay, wild-type replicon. The class given is cell-based. The procedure: (§1) The luciferase replicon transient transfection assay measures the ability of a test compound to inhibit the replication of a transiently-transfected HCV luciferase-bearing wild-type or mutant replicon in cured human hepatoma cells (cured GS4.1). The mutant replicons bear a specific single-site mutation in NS3 that is known to confer resistance to protease inhibitors currently in development. The inhibition of HCV replication was measured by quantification of luciferase protein expression. This assay has been validated using a panel of replicons bearing known protease inhibitor resistance mutations and their respective reference compounds. Briefly, subconfluent cured GS4.1 cells in OptiBuffer (ThermoElectron Corp.) were electroporated with 40 μg of wild-type or mutant luciferase-bearing HCV replicon RNA. The cells were then seeded in 96-well opaque white plates at 2.4×10^4 cells/well in 150 μL/well and incubated for 4 hours at 37° C./5% CO2. […] The plates were agitated on a rotating platform at room temperature for 3 minutes and read in a Victor^3V microplate reader (Perkin-Elmer) using a 700 nm cut-off filter with a 1 second read time. EC50 values were calculated from dose response curves from the resulting best-fit equations determined by Microsoft Excel and XLfit 4.1 software.
In general terms: In antiviral work, replicon cells carry a viral genome segment that copies itself.

Data set [2] can be described thus: in vitro. Format: cell-based. As to conditions: human. The procedure: For cytotoxicity evaluation, GS4.1 cells were treated with compounds as described above and cellular viability was monitored using the Cell Titer 96 AQueous One Solution Cell Proliferation Assay (Promega). CC50 values were determined from the % cytotoxicity versus concentration data with Tecan Magellan software as described above.

Data set [3] deals with T1, HCV NS3-NS4A protease 3a (Hepatitis C virus genotype 3a, UniProt Q81258).
T1 construct: using 2-3 nM HCV NS3-NS4A protease, which was produced according to the method of Taremi et al; made in house
The data set is described as follows: HCV protease assay (HiLyte Fluor TR/QXL 610 FRET peptide), genotype 3a. The class given is biochemical. The settings on record: 2-3 nM protease, 60 min at 30° C., read-out: IC50 Against HS3/4A 3a. The protocol: (§2) Measurement of the inhibitory effect of compounds on HCV protease activity was performed using the HiLyte Fluor™ TR/QXL™ 610 FRET peptide from AnaSpec, Inc. (San Jose, Calif.) under conditions developed in-house using 2-3 nM HCV NS3-NS4A protease, which was produced according to the method of Taremi et al. (Protein Science, 1998, 7, 2143-2149). The compounds were tested at a variety of concentrations in assay buffer containing a final DMSO concentration of 5%. Reactions were allowed to proceed for 60 min at 30° C. and fluorescence measurements were recorded with a PerkinElmer Victor^3 V 1420 Multilabel Counter. The IC50 values were determined from the percent inhibition versus concentration data using a sigmoidal non-linear regression analysis based on four parameters with XLfit 4.1 software.

In data set [4] the target is T2, HCV NS3-NS4A protease 4a (Hepatitis C virus genotype 4a, UniProt O39929).
T2 construct: using 2-3 nM HCV NS3-NS4A protease, which was produced according to the method of Taremi et al; made in house
Kind of data set: HCV protease assay (HiLyte Fluor TR/QXL 610 FRET peptide), genotype 4a. The class given is biochemical. As to conditions: 2-3 nM protease, 60 min at 30° C., read-out: IC50 Against HS3/4A 4a. The protocol: as §2

Data set [5] deals with HCV luciferase-bearing mutant replicon, NS3 D168V, in cured GS4.1 cells. The data set is described as follows: Luciferase replicon transient transfection assay, D168V mutant replicon. The class given is cell-based. The procedure:
as §1

For data set [6], the target named is T3, HCV NS3-NS4A protease (Hepatitis C virus genotype 1b, UniProt Q9WMX2).
T3 construct: using 1.2 nM HCV NS3-NS4A protease, which was obtained according to Taremi et al; made in house
Kind of data set: HCV protease assay (SensoLyte 620 HCV Protease Assay kit). Format: biochemical. As to conditions: 1.2 nM HCV NS3-NS4A protease, 60 min at room temperature. The procedure: Measurement of the inhibitory effect of compounds on HCV protease activity was performed with the SensoLyte™ 620 HCV Protease Assay kit from AnaSpec, Inc. (San Jose, Calif.) under conditions described by the supplier using 1.2 nM HCV NS3-NS4A protease, which was obtained according to Taremi et al. (Protein Science, 1998, 7, 2143-2149). The compounds were tested at a variety of concentrations in assay buffer containing a final DMSO concentration of 5%. Reactions were allowed to proceed for 60 min at room temperature and fluorescence measurements were recorded with a Tecan Infinity Spectrofluorimeter. The IC50 values were determined from the percent inhibition versus concentration data using a sigmoidal non-linear regression analysis based on four parameters with Tecan Magellan software.

Data set [7] deals with HCV luciferase-bearing mutant replicon, NS3 A156T, in cured GS4.1 cells. The data set is described as follows: Luciferase replicon transient transfection assay, A156T mutant replicon. The class given is cell-based. The procedure: as §1
In data set [8] the test system is HCV luciferase-bearing mutant replicon, NS3 A156S, in cured GS4.1 cells. Kind of data set: Luciferase replicon transient transfection assay, A156S mutant replicon. Format: cell-based. The protocol:
as §1

The target of data set [9] is T4, HCV NS3-NS4A protease 1b (Hepatitis C virus genotype 1b, UniProt Q9WMX2).
T4 construct: using 2-3 nM HCV NS3-NS4A protease, which was produced according to the method of Taremi et al; made in house
The data set is described as follows: HCV protease assay (HiLyte Fluor TR/QXL 610 FRET peptide), genotype 1b. Format: biochemical. As to conditions: 2-3 nM protease, 60 min at 30° C., read-out: IC50 Against HS3/4A 1b. The procedure: as §2

For data set [10], the target named is T5, HCV NS3-NS4A protease 1a (Hepatitis C virus genotype 1a, UniProt P27958).
T5 construct: using 2-3 nM HCV NS3-NS4A protease, which was produced according to the method of Taremi et al; made in house
Kind of data set: HCV protease assay (HiLyte Fluor TR/QXL 610 FRET peptide), genotype 1a. The settings on record: 2-3 nM protease, 60 min at 30° C., read-out: IC50 Against HS3/4A 1a. The class given is biochemical. The protocol: as §2

Data set [11] deals with HCV luciferase-bearing mutant replicon, NS3 R155K, in cured GS4.1 cells. The data set is described as follows: Luciferase replicon transient transfection assay, R155K mutant replicon. Format: cell-based. The procedure:
as §1

For orientation: EC50 means the concentration needed to bring the measured effect to its halfway point. Broadly, the CC50 is the concentration at which the toxic effect on the cells reaches its halfway point. High values mean lower toxicity to the cells, low ones greater toxicity to the cells.

Regarding `COc1ccc2c(O[C@H]3CC[C@H]4C(=O)N(C)CCCC/C=C\[C@@H]5C[C@@]5(C(=O)NS(=O)(=O)C5(C)CC5)NC(=O)[C@@H]4C3)cc(-c3nc(C(F)(F)F)cs3)nc2c1C` [Compound 51], the “Fold Change, Wild Type replicon” value in data set [1] (EC50 fold change, wild-type replicon) was determined as 1. Moreover, the EC50 in data set [1] (Hepatitis C virus, 96 h, read-out: EC50(nm), Wild Type replicon) lay in the range of 0.00035 to 0.0011 µM; in [5] (Hepatitis C virus, 96 h, read-out: EC50(nm), D168V replicon) it was 2 to 2.75 µM; in data set [7] (Hepatitis C virus, 96 h, read-out: EC50(nm), A156T replicon), 0.025 to 0.04 µM; in data set [8] (Hepatitis C virus, 96 h, read-out: EC50(nm), A156S replicon), 0.0001 to 0.00035 µM; in data set [11] (Hepatitis C virus, 96 h, read-out: EC50(nm), R155K replicon), 0.005 to 0.015 µM. The CC50 in [2] fell in the range of 10 to 75 µM. In addition, the IC50 in [3], in data set [4], in data set [6], in [9] and in [10] was less than 1 µM in each case. Besides, the “Fold Change, D168V replicon” value in data set [5] (EC50 fold change, D168V replicon) is 1000-3000. Besides, in data set [7] (EC50 fold change, A156T replicon), the “Fold Change, A156T replicon” value was 20-95. The “Fold Change, A156S replicon” value in [8] (EC50 fold change, A156S replicon) fell in the range of 0.2 to 0.6. Further, the “Fold Change, R155K replicon” value in data set [11] (EC50 fold change, R155K replicon) is given as 10-20.

For the origin of these results see US9284307B2, “Macrocyclic serine protease inhibitors” (Idenix Pharmaceuticals LLC, priority 2009, dated 2016).
